Laboratory results as given in patent US9101137B2 (priority 2011, dated 2015).
Where two headings read alike, the source gives them in different places.

Experiments:
Assay type in all cases: in vivo, Magnaporthe grisea
rice blast disease [1] = details: application concentration 20 ppm; rice (Nanatsuboshi), spray; lesion area after 5 days
rice blast disease [2] = details: application concentration 10 ppm; rice (Nanatsuboshi), spray; lesion area after 6 days; average of duplicate
rice blast disease [3] = details: application concentration 50 ppm; rice (Nanatsuboshi), spray; lesion area after 6 days

## COC(=O)NCc1cc(/C(C)=N/OCc2cccc(C)n2)ccc1Cl [Pyribencarb, pyribencarb]
Rice blast disease [1]
  Control value: 40.0
Rice blast disease [2]
  Control value: 18.8
Rice blast disease [3]
  Control value: 86.0
